Measured values published in patent publication US11865103B2, “Methods of treating disorders associated with glycosylation defective proteins” (CASE WESTERN RESERVE UNIVERSITY, priority 2016, dated 2024).

Tested on: hCLRN1^N48K-YFP
Assay: Hair bundle localization of hCLRN1^N48K-YFP (YFP intensity) in neuromast hair cells of live larvae treated with SERCA inhibitors
Format: in vivo, zebrafish
Parameters: key to YFP intensity in the bundle compared to untreated control / YFP intensity, post-exposure hair cell body hCLRN1N48K aggregates recovery: “—” = The YFP intensity in the bundle is similar to untreated control.; “+” = The YFP intensity in the bundle is higher compared to untreated control
Details: for Hair bundles with strong expression of hCLRN1^N48K-YFP protein / Increase in trafficking of hCLRN1^N48K to the hair bundle: 1 μM TG or 0.4 μM ART; for Hair bundles with strong expression of hCLRN1^N48K-YFP protein: untreated <5%, FIG. 4I; for Cumulative average of YFP intensity in the ROI in hair bundles (Mean±SEM) / Increase in trafficking of hCLRN1^N48K to the hair bundle: hCLRN1^N48K-YFP, clrn1^+/+ larvae; for Cumulative average of YFP intensity in the ROI in hair bundles (Mean±SEM): 1 uM TG or 0.4 uM ART + 0.01% DMSO in E3 medium, untreated 5.927±0.32; for Increase in trafficking of hCLRN1^N48K to the hair bundle: versus untreated
Method: hCLRN1-YFP predominantly localize to the hair bundle and a weak expression in the hair cell membrane in the transgenic hCLRN1-YFP; clrn1^+/+ zebrafish line, and the human pathogenic variant hCLRN1^N48K-YFP mislocalized in the endoplasmic reticulum (ER) with a small amount manages to get trafficked to the hair bundle of the transgenic hCLRN1^N48K-YFP; clrn1^+/+ zebrafish larvae. A relative quantification of YFP fluorescence intensity was carried-out to compare the quantity of hCLRN1^N48K-YFP that manages to localize in the hair bundle to the hCLRN1-YFP in the hair bundle. To quantify the YFP fluorescence intensity, unadjusted 1 micron middle section images of four hair bundles per neuromast were analyzed in Image J. Fluorescence intensity is reported as the background subtracted Integrated Density value. While Confocal microscopy imaging of neuromast hair bundles from the above mentioned groups, YFP fluorescence channel was unadjusted between siblings from the tested groups, and images chosen for figures were near the mean of the group data. Z-stack image of neuromast hair cells were captures using SP2 confocal microscope and the YFP fluorescence measurements in the hair bundles from 1) control uninjected and 2) unconventional secretory pathway cargo injected groups were obtained using ImageJ. A triangle shaped region of interest covering the area of hair bundle in 1 micron thickness middle section of z-stack image of neuromast hair cells was used to obtain YFP fluorescence pixel intensity measurements (Ihair bundle) and an area without hair cells (Ibackground) in the same image. Fluorescence intensity of YFP (Iload) for each hair bundle in a given neuromast was normalized (Iload=Ihair bundle−Ibackground). We analyzed 4 hair bundle per neuromast per larva, and the YFP fluorescence intensity per neuromast was represented as average of 4 hair bundle YFP intensity (IAvg. load=[…] in a neuromast/larva). And the mean of the total IAvg. load per group was considered for statistical comparison between groups. Student's t-test was used to confirm the observed changes in the YFP intensity in the hair bundles of hGRASP55 mRNA injected compared to hSNX27 mRNA injected and uninjected is significant.
Thapsigargin (TG, 1 mg, Sigma-Aldrich, #T9033) stock in 100% DMSO was diluted in E3 medium to make the required final concentration of the drug. Five different concentrations that were earlier reported to induce ER stress and are non-toxic or lower lethal dose (LD50) in the zebrafish (0.1, 0.5, 1.0, 2.5, 5 μM concentrations) were used in this study. A total of 25 larvae per dosage and treatment duration from the genotypes hCLRN1^N48K-YFP; clrn1^+/+ and hCLRN1-YFP; clrn1^+/+, no older than 72 hours post fertilization (hpf) at the start of the experiment, were placed in a well of 12-well uncoated culture plate (BD Falcon, Canaan, CT). For ER stress induction, larvae were incubated in different dosage of TG from 1 hr to overnight at 28.5° C., followed by three times wash with E3 medium at 28.5° C. (Table 2) and hair cells from the hCLRN1^N48K-YFP; clrn1^+/+ and hCLRN1-YFP; clrn1^+/+ lines were examined for the respective protein distribution pattern in the hair cell bundle and the cell body. Live confocal images of ‘O’ and ‘ML1’ neuromasts per larvae were capture using Leica SP2 confocal microscope with 40× oil immersion objective. Unadjusted 1 micron middle section images of four hair bundles per ML1 neuromast of larvae from TG treated and untreated groups were analyzed using Image J software version v. 1.48 (FIG. 4). The hair bundle trafficked amount of hCLRN1^N48K protein corresponds to the change in YFP intensity in the hair bundle in the TG treated larvae. Quantification of YFP fluorescence intensity was carried out as described in the previous experiment for unconventional trafficking of hCLRN1^N48K-YFP by hGRASP55 cargos. […]

SMILES: C/C=C(/C)C(=O)O[C@H]1C(C)=C2[C@H]([C@@H]1OC(=O)CCCCCCC)[C@@](C)(OC(C)=O)C[C@H](OC(=O)CCC)[C@@]1(O)[C@H]2OC(=O)[C@@]1(C)O [TG, Thapsigargin]
- Hair bundles with strong expression of hCLRN1^N48K-YFP protein: 38%
- YFP intensity in the bundle compared to untreated control (TG 0.1 μM, exposure 1 h): —
- YFP intensity in the bundle compared to untreated control (TG 0.1 μM, exposure 2 h): —
- YFP intensity in the bundle compared to untreated control (TG 0.1 μM, exposure 3 h): —
- YFP intensity in the bundle compared to untreated control (TG 0.1 μM, exposure 4 h): —
- YFP intensity in the bundle compared to untreated control (TG 0.1 μM, exposure 8 h): —
- YFP intensity in the bundle compared to untreated control (TG 0.1 μM, exposure 16 h): —
- YFP intensity in the bundle compared to untreated control (TG 0.5 μM, exposure 1 h): —
- YFP intensity in the bundle compared to untreated control (TG 0.5 μM, exposure 2 h): —
- YFP intensity in the bundle compared to untreated control (TG 0.5 μM, exposure 3 h): —
- YFP intensity in the bundle compared to untreated control (TG 0.5 μM, exposure 4 h): —
- YFP intensity in the bundle compared to untreated control (TG 0.5 μM, exposure 8 h): —
- YFP intensity in the bundle compared to untreated control (TG 1.0 μM, exposure 1 h): —
- YFP intensity in the bundle compared to untreated control (TG 1.0 μM, exposure 2 h): —
- YFP intensity in the bundle compared to untreated control (TG 1.0 μM, exposure 3 h): +
- Rescue of mutant protein to the hair bundle (TG dosages lower than 1 μM): inefficient in rescuing mutant protein
- Cumulative average of YFP intensity in the ROI in hair bundles (Mean±SEM): 18.59±0.87
- Increase in trafficking of hCLRN1^N48K to the hair bundle: 3 folds

SMILES: C[C@@H]1CC[C@H]2[C@@H](C)C(=O)O[C@@H]3O[C@@]4(C)CC[C@@H]1[C@]32OO4 [ART, Artemisinin]
- Hair bundles with strong expression of hCLRN1^N48K-YFP protein: 76%
- YFP intensity in the bundle compared to untreated control (ART 0.1 μM, exposure 1 h): —
- YFP intensity in the bundle compared to untreated control (ART 0.1 μM, exposure 2 h): —
- YFP intensity in the bundle compared to untreated control (ART 0.1 μM, exposure 4 h): —
- YFP intensity in the bundle compared to untreated control (ART 0.1 μM, exposure 6 h): —
- YFP intensity in the bundle compared to untreated control (ART 0.1 μM, exposure 8 h): —
- YFP intensity in the bundle compared to untreated control (ART 0.1 μM, exposure 10 h): —
- YFP intensity, post-exposure hair cell body hCLRN1N48K aggregates recovery (ART 0.1 μM, post-exposure recovery time 10 h): —
- YFP intensity, post-exposure hair cell body hCLRN1N48K aggregates recovery (ART 0.1 μM, post-exposure recovery time 24 h): —
- YFP intensity, post-exposure hair cell body hCLRN1N48K aggregates recovery (ART 0.1 μM, post-exposure recovery time 48 h): —
- YFP intensity in the bundle compared to untreated control (ART 0.25 μM, exposure 1 h): —
- YFP intensity in the bundle compared to untreated control (ART 0.25 μM, exposure 6 h): —
- YFP intensity in the bundle compared to untreated control (ART 0.25 μM, exposure 10 h): —
- YFP intensity, post-exposure hair cell body hCLRN1N48K aggregates recovery (ART 0.25 μM, post-exposure recovery time 10 h): —
- YFP intensity, post-exposure hair cell body hCLRN1N48K aggregates recovery (ART 0.25 μM, post-exposure recovery time 24 h): —
- YFP intensity, post-exposure hair cell body hCLRN1N48K aggregates recovery (ART 0.25 μM, post-exposure recovery time 48 h): —
- YFP intensity in the bundle compared to untreated control (ART 0.4 μM, exposure 1 h): —
- YFP intensity in the bundle compared to untreated control (ART 0.4 μM, exposure 2 h): —
- YFP intensity in the bundle compared to untreated control (ART 0.4 μM, exposure 6 h): +
- Cumulative average of YFP intensity in the ROI in hair bundles (Mean±SEM): 31.04±1.25
- Increase in trafficking of hCLRN1^N48K to the hair bundle: 5 folds
